Source: patent publication US9637469B2, “Pyridine derivative” (Teijin Pharma Limited, priority 2012, dated 2017)

molecular target: T1, human URAT1 (Homo sapiens, UniProt Q96S37); experiment: Test for inhibition of uric acid transport using human URAT1-expressing cells;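 further: three stars up to 0.2 µM two stars 0.2-2 µM one star 2-20 µM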; type: cell-based; conditions: HEK 293 cells expressing human URAT1; 14C-labeled uric acid 25 μM; uptake 37° C. for 5 min
T1 construct: Full-length cDNA of human URAT1 (hURAT1)
T1 sequence (Q96S37 1-553): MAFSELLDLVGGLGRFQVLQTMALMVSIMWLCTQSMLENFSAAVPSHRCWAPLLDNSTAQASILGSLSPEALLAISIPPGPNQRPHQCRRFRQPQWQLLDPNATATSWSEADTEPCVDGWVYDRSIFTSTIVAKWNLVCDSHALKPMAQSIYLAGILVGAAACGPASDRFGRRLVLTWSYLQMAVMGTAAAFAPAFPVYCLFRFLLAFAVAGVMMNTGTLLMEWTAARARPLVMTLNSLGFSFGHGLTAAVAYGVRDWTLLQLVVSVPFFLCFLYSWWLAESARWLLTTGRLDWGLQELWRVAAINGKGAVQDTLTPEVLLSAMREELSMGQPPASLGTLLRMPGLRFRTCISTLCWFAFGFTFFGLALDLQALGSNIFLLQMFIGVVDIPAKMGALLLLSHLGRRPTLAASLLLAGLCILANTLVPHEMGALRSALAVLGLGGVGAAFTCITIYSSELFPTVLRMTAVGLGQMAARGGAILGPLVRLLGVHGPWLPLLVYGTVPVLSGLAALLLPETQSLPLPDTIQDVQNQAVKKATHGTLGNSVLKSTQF
Method: (1) Preparation of the Test Compound
The test compound was dissolved in DMSO (produced by Sigma) to a concentration of 20 mM and was subsequently used by diluting to desired concentrations.
(2) Test for Inhibition of Uric Acid Transport Using Human URAT1-Expressing Cells
Full-length cDNA of human URAT1 (hURAT1) (produced by OriGene Technologies, Inc., NCBI Reference Sequence: NM 144585) was subcloned into an expression vector, pCMV6-Kan/Neo (produced by OriGene Technologies, Inc.), and hURAT1 gene was transfected into human embryonic kidney-derived cells (HEK 293 cells) by liposome method using Lipofectamine 2000 (produced by Invitrogen Corporation), whereupon HEK 293 cells expressing human URAT1 gene were screened by its Geneticin resistance. By a method similar to the following method, functional expression of human URAT1 gene was confirmed by using transport of ^14C-labeled uric acid into the cells as an index.
The HEK 293 cells expressing human URAT1 were seeded in a 24-well cell culture dish to a density of 3×10^5 cells/mL/well and were cultured in Dulbecco's modified Eagle's medium (D-MEM medium) containing 10% fetal bovine serum at 37° C. for 2 days. Thereafter, the following test for inhibition of uric acid transport was performed.
After the medium was removed by aspiration from each well, the medium was replaced with a solution obtained by substituting NaCl in Hank's Balanced Salt Solution (HBSS) with Na gluconate (hereinafter, HBSS/Na-gluconate) and the cells were preincubated at 37° C. for about 10 minutes. HBSS/Na-gluconate was removed by aspiration and a ^14C-uric acid solution that was warmed at 37° C. in advance containing various concentrations of the Example compound described in (1) and a radioactive ligand (^14C-labeled uric acid; final concentration 25 μM) was added and an uptake reaction was carried out by incubating at 37° C. for 5 min. After the incubation, ^14C-labeled uric acid solution was removed by aspiration and the cells were washed three times with ice-cold HBSS. The HEK 293 cells expressing human URAT1 were lysed in 0.2 mol/L aqueous NaOH (hereafter, the cell sample) and the cell samples were collected. The cell sample and a liquid scintillation liquid, ULTIMA GOLD (produced by PerkinElmer, Inc.) were mixed and the radioactivity was measured by a liquid scintillation counter (Beckman Coulter, Inc.).
The uric acid transport rate of the Example compound at each concentration (% of control uptake) was calculated relative to the radioactivity (radioactivity in human URAT1 expressing HEK 293 cells without addition of the Example compound (DMSO addition)) showing URAT1-specific uric acid transport as 100%, and the concentration (IC50) of the Example compound at which the uric acid transport rate is inhibited by 50% was determined. In addition, the symbols (*, **, and ***) in the table represent the following inhibitory activity values: • IC50≦_ 0.2 μM: *** • 0.2 μM<IC50≦2 μM: ** • 2 μM<IC50≦20 μM: *

Inhibitory Activity (IC50 of uric acid transport inhibition)	Compound
* *	CCOC(=O)c1c(C)nc(-c2cccnc2)n1Cc1cccc2ccccc12 [Compound A3, ethyl 4-methyl-1-(naphthalen-1-ylmethyl)-2-(pyridin-3-yl)-1H-imidazole-5-carboxylate]
* *	Cc1nc(-c2cccnc2)n(Cc2csc3cccc(Br)c23)c1C(=O)O [Compound A8, 1-((4-bromobenzo[b]thiophen-3-yl)methyl)-4-methyl-2-(pyridin-3-yl)-1H-imidazole-5-carboxylic acid]
* *	CCc1nc(-c2cccnc2)n(Cc2cccc3ccccc23)c1C(=O)O [Compound A10, 4-ethyl-1-(naphthalen-1-ylmethyl)-2-(pyridin-3-yl)-1H-imidazole-5-carboxylic acid]
* *	O=C(O)c1c(C2CC2)nc(-c2cccnc2)n1Cc1cccc2ccccc12 [Compound A11, 4-cyclopropyl-1-(napthalen-1-ylmethyl)-2-(pyridin-3-yl)-1H-imidazole-5-carboxylic acid]
* *	Cc1nc(-c2cccnc2)n(Cc2ccc(C)c3ccccc23)c1C(=O)O [Compound A17, 4-methyl-1-((4-methylnaphthalen-1-yl)methyl)-2-(pyridin-3-yl)-1H-imidazole-5-carboxylic acid]
* *	Cc1ccc(Cn2c(-c3cccnc3)nc(Cl)c2C(=O)O)c2ccccc12 [Compound A23, 4-chloro-1-((4-methylnaphthalen-1-yl)methyl)-2-(pyridin-3-yl)-1H-imidazole-5-carboxylic acid]
* * *	Cc1ccc(Cn2c(-c3cccnc3)nc(C(C)C)c2C(=O)O)c2ccccc12 [Compound A25, 4-isopropyl-1-((4-methylnaphthalen-1-yl)methyl)-2-(pyridin-3-yl)-1H-imidazole-5-carboxylic acid]
* *	O=C(O)c1c(C2CC2)nc(-c2cccnc2)n1Cc1csc2cccc(Br)c12 [Compound A34, 1-((4-bromobenzo[b]thiophen-3-yl)methyl)-4-cyclopropyl-2-(pyridin-3-yl)-1H-imidazole-5-carboxylic acid]
* *	O=C(O)c1c(C2CC2)nc(-c2cccnc2)n1Cc1csc2cccc(C(F)(F)F)c12 [Compound A35, 4-cyclopropyl-2-(pyridin-3-yl)-1-((4-(trifluoromethyl)benzo[b]thiophen-3-yl)methyl)-1H-imidazole-5-carboxylic acid]
* * *	CC(C)c1nc(-c2cccnc2)n(Cc2csc3cccc(Cl)c23)c1C(=O)O [Compound A37, 1-((4-chlorobenzo[b]thiophen-3-yl)methyl)-4-isopropyl-2-(pyridin-3-yl)-1H-imidazole-5-carboxylic acid]
* * *	CC(C)c1nc(-c2cccnc2)n(Cc2csc3cccc(Br)c23)c1C(=O)O [Compound A38, 1-((4-bromobenzo[b]thiophen-3-yl)methyl)-4-isopropyl-2-(pyridin-3-yl)-1H-imidazole-5-carboxylic acid]
* * *	CC(C)c1nc(-c2cccnc2)n(Cc2csc3cccc(C(F)(F)F)c23)c1C(=O)O [Compound A39, 4-isopropyl-2-(pyridin-3-yl)-1-((4-(trifluoromethyl)benzo[b]thiophen-3-yl)methyl)-1H-imidazole-5-carboxylic acid]
* *	CC(C)c1nc(-c2cccnc2)n(Cc2csc3ccccc23)c1C(=O)O [Compound A40, 1-(benzo[b]thiophen-3-ylmethyl)-4-isopropyl-2-(pyridin-3-yl)-1H-imidazole-5-carboxylic acid]

Second part, the compound before the results:

Compound	Inhibitory Activity (IC50 of uric acid transport inhibition)
Cc1nc(-c2cccnc2)n(Cc2csc3cccc(C(F)(F)F)c23)c1C(=O)O [Compound A6, 4-methyl-2-(pyridin-3-yl)-1-((4-(trifluoromethyl)benzo[b]thiophen-3-yl)-methyl)-1H-imidazole-5-carboxylic acid]	* *
O=C(O)c1c(Cl)nc(-c2cccnc2)n1Cc1cccc2ccccc12 [Compound A9, 4-chloro-1-(napthalen-1-ylmethyl)-2-(pyridin-3-yl)-1H-imidazole-5-carboxylic acid]	* *
Cc1ccc(Cn2c(-c3cccnc3)nc(C3CC3)c2C(=O)O)c2ccccc12 [Compound A18, 4-cyclopropyl-1-((4-methylnaphthalen-1-yl)methyl)-2-(pyridin-3-yl)-1H-imidazole-5-carboxylic acid]	* * *
O=C(O)c1c(C(F)(F)F)nc(-c2cccnc2)n1Cc1csc2ccccc12 [Compound A22, 1-(benzo[b]thiophen-3-ylmethyl)-2-(pyridin-3-yl)-4-(trifluoromethyl)-1H-imidazole-5-carboxylic acid]	* *
CC(C)c1nc(-c2cccnc2)n(Cc2cccc3ccccc23)c1C(=O)O [Compound A24, 4-isopropyl-1-(naphthalen-1-ylmethyl)-2-(pyridin-3-yl)-1H-imidazole-5-carboxylic acid]	* *
O=C(O)c1c(C(F)(F)F)nc(-c2cccnc2)n1Cc1csc2cccc(Cl)c12 [Compound A27, 1-((4-chlorobenzo[b]thiophen-3-yl)methyl)-2-(pyridin-3-yl)-4-(trifluoromethyl)-1H-imidazole-5-carboxylic acid]	* *
O=C(O)c1c(C(F)(F)F)nc(-c2cccnc2)n1Cc1csc2cccc(Br)c12 [Compound A31, 1-((4-bromobenzo[b]thiophen-3-yl)methyl)-2-(pyridin-3-yl)-4-(trifluoromethyl)-1H-imidazole-5-carboxylic acid]	* *
O=C(O)c1c(C2CC2)nc(-c2cccnc2)n1Cc1csc2cccc(Cl)c12 [Compound A33, 1-((4-chlorobenzo[b]thiophen-3-yl)methyl)-4-cyclopropyl-2-(pyridin-3-yl)-1H-imidazole-5-carboxylic acid]	* *
O=C(O)c1c(C2CC2)nc(-c2cccnc2)n1Cc1csc2ccccc12 [Compound A36, 1-(benzo[b]thiophen-3-ylmethyl)-4-cyclopropyl-2-(pyridin-3-yl)-1H-imidazole-5-carboxylic acid]	* *

same assay, conditions: HEK 293 cells expressing human URAT1; 14C-labeled uric acid 25 μM; uptake 37° C. for 5 min; read-out: Inhibitory Activity (IC50 of uric acid transport inhibition)

IC50 [µM]	Compound
2 to 20	O=C(O)c1cnc(-c2cccnc2)n1Cc1cccc2ccccc12 [Compound A12]
2 to 20	Cc1nc(-c2cccnc2)n(Cc2csc3ccccc23)c1C(=O)O [Compound A16]

Second part, the compound before the results:

Compound	IC50 [µM]
Cc1ccc2ccccc2c1Cn1c(-c2cccnc2)nc(C)c1C(=O)O [Compound A4]	2 to 20
Cc1nc(-c2cccnc2)n(Cc2csc3cccc(C)c23)c1C(=O)O [Compound A5]	2 to 20
O=C(O)c1c(C(F)(F)F)nc(-c2cccnc2)n1Cc1cccc2cccc(Br)c12 [Compound A28]	2 to 20
Cc1cccc2cccc(Cn3c(-c4cccnc4)nc(C(F)(F)F)c3C(=O)O)c12 [Compound A30]	2 to 20
O=C(O)c1c(C(F)(F)F)nc(-c2cccnc2)n1Cc1csc2cccc(C(F)(F)F)c12 [Compound A32]	2 to 20
